# Like-named read-outs stand apart in the source and are kept apart here.
# Assays:
# Test in all cases: Test F pre-/postemergence plant response
# Type in all cases: in vivo
# [1] = tested on: arrowleaf sida (Sida rhombifolia); settings: Sida rhombifolia, scale 0 to 100, read-out: Plant response rating, Arrowleaf Sida
# Procedure, shortened: (§1)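 Values are visual ratings, where 100 is complete control and 0 is no effect, given after 14 to 21 days of greenhouse growth. Test chemicals in a non-phytotoxic, surfactant-containing solvent were sprayed on soil just after planting or on emerged seedlings at the 1- to 4-leaf stage.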
# corn (Zea mays) = settings: Zea mays, scale 0 to 100
# Procedure, shortened: as §1
# [2] = tested on: fall panicum (Panicum dichotomiflorum); settings: Panicum dichotomiflorum, scale 0 to 100, read-out: Plant response rating, Panicum, Fall
# Procedure, shortened: as §1
# [3] = tested on: field bindweed (Convolvulus arvensis); settings: Convolvulus arvensis, scale 0 to 100, read-out: Plant response rating, Field Bindweed
# Procedure, shortened: as §1
# [4] = tested on: giant foxtail (Setaria faberii); settings: Setaria faberi, pre-emergence, scale 0 to 100, read-out: Plant response rating, Foxtail, Giant
# Procedure, shortened: as §1
# [5] = tested on: goosegrass (Eleusine indica); settings: Eleusine indica, pre-emergence, scale 0 to 100, read-out: Plant response rating, Goosegrass
# Procedure, shortened: as §1
# kochia (Kochia scoparia) = settings: Bassia scoparia, pre-emergence, scale 0 to 100, read-out: Plant response rating, Kochia
# Procedure, shortened: as §1
# [6] = tested on: palmer pigweed (Amaranthus palmeri); settings: Amaranthus palmeri, scale 0 to 100, read-out: Plant response rating, Pigweed, Palmer
# Procedure, shortened: as §1
# soybean (Glycine max) = settings: Glycine max, scale 0 to 100, read-out: Plant response rating, Soybean
# Procedure, shortened: as §1
# [7] = tested on: surinam grass (Brachiaria decumbens); settings: Urochloa decumbens, pre-emergence, scale 0 to 100, read-out: Plant response rating, Surinam Grass
# Procedure, shortened: as §1
# [8] = tested on: velvetleaf (Abutilon theophrasti); settings: Abutilon theophrasti, pre-emergence, scale 0 to 100, read-out: Plant response rating, Velvetleaf
# Procedure, shortened: as §1
# [9] = post-emergence, 8 g ai/ha Postemergence
# [10] = post-emergence, 16 g ai/ha Postemergence
# [11] = post-emergence, 31 g ai/ha Postemergence
# [12] = post-emergence, 62 g ai/ha Postemergence
# [13] = post-emergence, 125 g ai/ha Postemergence
# [14] = pre-emergence, 8 g ai/ha Preemergence
# [15] = pre-emergence, 16 g ai/ha Preemergence
# [16] = pre-emergence, 31 g ai/ha Preemergence
# [17] = pre-emergence, 62 g ai/ha Preemergence
# [18] = pre-emergence, 125 g ai/ha Preemergence
compound,measurement,setting,value
"FC(F)c1cc(-c2ccccc2Oc2ncc(Br)cn2)no1 [Compound 62, 5-bromo-2-[2-[5-(difluoromethyl)-3-isoxazolyl]phenoxy]pyrimidine]",pest or weed control at 8 g/ha,[1]; [9],65%
same,pest or weed control at 16 g/ha,[1]; [10],80%
same,pest or weed control at 31 g/ha,[1]; [11],95%
same,pest or weed control at 62 g/ha,[1]; [12],98%
same,pest or weed control at 125 g/ha,[1]; [13],98%
same,pest or weed control at 8 g/ha,[1]; [14],0%
same,pest or weed control at 16 g/ha,[1]; [15],20%
same,pest or weed control at 31 g/ha,[1]; [16],70%
same,pest or weed control at 62 g/ha,[1]; [17],95%
same,pest or weed control at 125 g/ha,[1]; [18],100%
same,"Corn plant response rating (crop injury, 0 = no effect, 100 = complete kill) at 8 g/ha",corn (Zea mays); [9],0%
same,"Corn plant response rating (crop injury, 0 = no effect, 100 = complete kill) at 16 g/ha",corn (Zea mays); [10],0%
same,"Corn plant response rating (crop injury, 0 = no effect, 100 = complete kill) at 31 g/ha",corn (Zea mays); [11],0%
same,"Corn plant response rating (crop injury, 0 = no effect, 100 = complete kill) at 62 g/ha",corn (Zea mays); [12],5%
same,"Corn plant response rating (crop injury, 0 = no effect, 100 = complete kill) at 125 g/ha",corn (Zea mays); [13],10%
same,"Corn plant response rating (crop injury, 0 = no effect, 100 = complete kill) at 8 g/ha",corn (Zea mays); [14],0%
same,"Corn plant response rating (crop injury, 0 = no effect, 100 = complete kill) at 16 g/ha",corn (Zea mays); [15],0%
same,"Corn plant response rating (crop injury, 0 = no effect, 100 = complete kill) at 31 g/ha",corn (Zea mays); [16],0%
same,"Corn plant response rating (crop injury, 0 = no effect, 100 = complete kill) at 62 g/ha",corn (Zea mays); [17],0%
same,"Corn plant response rating (crop injury, 0 = no effect, 100 = complete kill) at 125 g/ha",corn (Zea mays); [18],0%
same,pest or weed control at 8 g/ha,[2]; [9],0%
same,pest or weed control at 16 g/ha,[2]; [10],0%
same,pest or weed control at 31 g/ha,[2]; [11],5%
same,pest or weed control at 62 g/ha,[2]; [12],10%
same,pest or weed control at 125 g/ha,[2]; [13],60%
same,pest or weed control at 8 g/ha,[2]; [14],0%
same,pest or weed control at 16 g/ha,[2]; [15],0%
same,pest or weed control at 31 g/ha,[2]; [16],0%
same,pest or weed control at 125 g/ha,[2]; [18],100%
same,pest or weed control at 62 g/ha,"[2]; pre-emergence, Preemergence",95%
same,pest or weed control at 8 g/ha,[3]; [9],40%
same,pest or weed control at 16 g/ha,[3]; [10],40%
same,pest or weed control at 31 g/ha,[3]; [11],35%
same,pest or weed control at 62 g/ha,[3]; [12],50%
same,pest or weed control at 125 g/ha,[3]; [13],75%
same,pest or weed control at 8 g/ha,[3]; [14],0%
same,pest or weed control at 16 g/ha,[3]; [15],0%
same,pest or weed control at 31 g/ha,[3]; [16],0%
same,pest or weed control at 62 g/ha,[3]; [17],0%
same,pest or weed control at 125 g/ha,[3]; [18],0%
same,pest or weed control at 8 g/ha,[4]; 8 g ai/ha Preemergence,0%
same,pest or weed control at 16 g/ha,[4]; 16 g ai/ha Preemergence,15%
same,pest or weed control at 31 g/ha,[4]; 31 g ai/ha Preemergence,35%
same,pest or weed control at 62 g/ha,[4]; 62 g ai/ha Preemergence,65%
same,pest or weed control at 125 g/ha,[4]; 125 g ai/ha Preemergence,75%
same,pest or weed control at 8 g/ha,[5]; 8 g ai/ha Preemergence,0%
same,pest or weed control at 16 g/ha,[5]; 16 g ai/ha Preemergence,0%
same,pest or weed control at 31 g/ha,[5]; 31 g ai/ha Preemergence,0%
same,pest or weed control at 125 g/ha,[5]; 125 g ai/ha Preemergence,75%
same,pest or weed control at 62 g/ha,[5]; Preemergence,5%
same,pest or weed control at 8 g/ha,kochia (Kochia scoparia); 8 g ai/ha Preemergence,10%
same,pest or weed control at 31 g/ha,"kochia (Kochia scoparia); 31 g ai/ha, Preemergence",20%
same,pest or weed control at 125 g/ha,"kochia (Kochia scoparia); 125 g ai/ha, Preemergence",95%
same,pest or weed control at 62 g/ha,kochia (Kochia scoparia); Preemergence,35%
same,pest or weed control at 8 g/ha,[6]; [9],90%
same,pest or weed control at 16 g/ha,[6]; [10],70%
same,pest or weed control at 31 g/ha,[6]; [11],95%
same,pest or weed control at 62 g/ha,[6]; [12],100%
same,pest or weed control at 125 g/ha,[6]; [13],100%
same,pest or weed control at 8 g/ha,[6]; [14],10%
same,pest or weed control at 16 g/ha,[6]; [15],80%
same,pest or weed control at 31 g/ha,[6]; [16],75%
same,pest or weed control at 125 g/ha,[6]; [18],100%
same,pest or weed control at 62 g/ha,"[6]; pre-emergence, Preemergence",100%
same,plant injury at 8 g/ha,soybean (Glycine max); [9],10%
same,plant injury at 16 g/ha,soybean (Glycine max); [10],20%
same,plant injury at 31 g/ha,soybean (Glycine max); [11],40%
same,plant injury at 62 g/ha,soybean (Glycine max); [12],65%
same,plant injury at 125 g/ha,soybean (Glycine max); [13],85%
same,plant injury at 8 g/ha,soybean (Glycine max); [14],0%
same,plant injury at 16 g/ha,soybean (Glycine max); [15],0%
same,plant injury at 31 g/ha,soybean (Glycine max); [16],0%
same,plant injury at 125 g/ha,soybean (Glycine max); [18],40%
same,plant injury at 62 g/ha,"soybean (Glycine max); pre-emergence, Preemergence",10%
same,pest or weed control at 8 g/ha,[7]; 8 g ai/ha Preemergence,0%
same,pest or weed control at 16 g/ha,[7]; 16 g ai/ha Preemergence,0%
same,pest or weed control at 31 g/ha,[7]; 31 g ai/ha Preemergence,15%
same,pest or weed control at 125 g/ha,[7]; 125 g ai/ha Preemergence,10%
same,pest or weed control at 62 g/ha,[7]; Preemergence,15%
same,pest or weed control at 8 g/ha,[8]; 8 g ai/ha Preemergence,0%
same,pest or weed control at 16 g/ha,[8]; 16 g ai/ha Preemergence,35%
same,pest or weed control at 31 g/ha,[8]; 31 g ai/ha Preemergence,75%
same,pest or weed control at 125 g/ha,[8]; 125 g ai/ha Preemergence,100%
same,pest or weed control at 62 g/ha,[8]; Preemergence,100%
